Source: patent US6680067B2 (priority 2001, dated 2004)
Counter-ions that a name gives are not always drawn.

What was measured:
[1] = pharmacokinetics of nalbuphine in beagle plasma after intramuscular injection; settings: for k01: hydrochloride
[2] = pharmacokinetics of nalbuphine in rat plasma after intramuscular injection; settings: for k01: hydrochloride
Procedure: Each group consisted of 6 rats and each rat was injected once intramuscularly on the rear leg.

Sprague-Dawley rats = test: rat cold ethanol tail-flick test (analgesic effect); assay type: in vivo; settings: intramuscular, 25 μM/kg, FIG. 5
[3] = Shafer et al. 1991; cited from earlier work
[4] = beagle, dog, plasma, im, 5 mg/kg
[5] = beagles, i.m., dose 5 mg/kg, n = 5, mean ± S.E.
[6] = male, Sprague-Dawley, rat, plasma, im, 24 mg/kg

Work on `Oc1ccc2c3c1O[C@H]1[C@@H](O)CC[C@@]4(O)[C@@H](C2)N(CC2CCC2)CC[C@]314` [Nalbuphine-HCl, nalbuphine hydrochloride] yielded an AUC [1, 4] of 1.87 ± 0.203 µg·h/mL, a CL/F [1, 4] of 2.8 L/h/kg and a Cmax [1, 4] of 2.46 ± 0.755 µg/mL. The MRT [1, 4] was 132 ± 30 min, the Tmax [1, 4] was 5.4 ± 2.4 min and the half-life ([1]; beagle, dog, plasma, im, 5 mg/kg, t1/2, k01, beagles, n = 5, mean ± S.E.) was 7.2 ± 4.2 min. It also gave a half-life ([1]; beagle, dog, plasma, im, 5 mg/kg, t1/2, α, beagles, n = 5, mean ± S.E.) of 7.8 ± 6.6 min, a half-life ([1]; beagle, dog, plasma, im, 5 mg/kg, t1/2, β (elimination half-life), beagles, n = 5, mean ± S.E.) of 168 ± 54 min and a α [1, 5] of 67.9 ± 29.3 h⁻¹. It also gave a β [1, 5] of 0.42 ± 0.15 h⁻¹, a k01 ([1]; beagles, i.m., dose 5 mg/kg, n = 5, mean ± S.E., listed as Nal-HCl) of 82.5 ± 43.9 h⁻¹ and a k01 ([1]; beagles, i.m., dose 5 mg/kg, n = 5, mean ± S.E., listed as Nalbuphine HCl) of 82.5 ± 43.9 h⁻¹. For the same compound, the k01 ([1]; beagles, i.m., dose 5 mg/kg, n = 5, mean ± S.E., listed as nalbuphine hydrochloride) was 82.5 h⁻¹, the “β or k10” value ([2]; Sprague-Dawley rats, i.m., 24 mg/kg (FIG. 7), means ± S.E.) was 0.43 ± 0.21 h⁻¹ and the k01 ([2]; Sprague-Dawley rats, i.m., 24 mg/kg (FIG. 7), means ± S.E., 24 mg/kg) was 12.1 ± 14.1 h⁻¹. For the same compound, the k01 ([2]; Sprague-Dawley rats, i.m., 24 mg/kg (FIG. 7), means ± S.E., listed as nalbuphine hydrochloride, 24 mg/kg) was 12.1 ± 14.1 h⁻¹, the AUC [2, 6] was 8.04 ± 2.89 µg·h/mL and the CL/F [2, 6] was 3.5 L/h/kg. It also gave a Cmax [2, 6] of 2.23 ± 0.669 µg/mL, an MRT [2, 6] of 180 ± 72 min and a Tmax [2, 6] of 27 ± 14.4 min. For the same compound, the half-life ([2]; male, Sprague-Dawley, rat, plasma, im, 24 mg/kg, t1/2, k01, Sprague-Dawley rats, 24 mg/kg (FIG. 7), means ± S.E.) was 8.4 ± 9 min, the half-life ([2]; male, Sprague-Dawley, rat, plasma, im, 24 mg/kg, t1/2, β (elimination half-life), Sprague-Dawley rats, 24 mg/kg (FIG. 7), means ± S.E.) was 114 ± 48 min and the “10% analgesic effect (duration)” value (Sprague-Dawley rats) was 2.7 h. For the same compound, the “50% analgesic effect (duration)” value (Sprague-Dawley rats) was 1.2 h.

In the case of `Oc1ccc2c(c1)[C@@]13CCCC[C@@]1(O)[C@@H](C2)N(CC1CCC1)CC3` [butorphanol], the “dose needed to elicit the same analgesic effect” value [3] is listed as 2 mg.

For `CN1CC[C@]23c4c5ccc(O)c4O[C@H]2[C@@H](O)C=C[C@H]3[C@H]1C5` [morphine], the “dose needed to elicit the same analgesic effect” value [3] is given as 10 mg.
